Reference: patent US10571448B2, “Method and system for comprehensive evaluation of organic compound and heavy metal pollution in water based on fish electrocardio” (priority 2018, dated 2020)

How the values were obtained:
koi = assay: 48 h semi-lethal concentration of heavy metal solutions for koi; conditions: recorded as 1 toxic unit (1 TU)
zebrafish [1] = assay: 48 h medial lethal concentration of deltamethrin for zebrafish; assay type: in vivo; conditions: recorded as 1 toxic unit (1 TU)
Text: Three zebrafishes were used in each exposed group.

zebrafish [2] = assay: Zebrafish electro-cardio indexes under deltamethrin exposure, with Pearson correlation to environmental stress E; conditions: as concentration increased (0.52, 2, 2.6 μg/L), 0-48 h
Method: Fish electro-cardio signals respectively before and after the fish is exposed to a solution containing a specific organic compound are gathered by the real-time and miniaturized fish electro-cardio acquisition system, and various electro-cardio indexes are respectively extracted.
The correlation between environmental stress and respective extracted electro-cardio indexes is analyzed according to Pearson Correlation Analysis to select an electro-cardio index suitable for the assessment of water quality with respect to this specific organic compound.
A linear regression model between the environmental stress and respective electro-cardio indexes is analyzed and assessed according to Akaike Information Criterion and the sum of square error to finally obtain an electro-cardio index suitable for the assessment of water quality with respect to the specific organic compound.
In the present method, the real-time electro-cardio signals were acquired from multiple fishes respectively exposed to different concentrations of the specific organic compound. Firstly, the zebrafish was exposed to an organic solvent deltamethrin solution. […]
The acquired electro-cardiographs were subjected to filtering and interference removal to become clearer; the analyzed data was processed, and then was analyzed by Matlab software and SPSS software to estimate the electro-cardio changes based on data differences. […]

SMILES	48 h semi-lethal concentration (koi) [mg/L]	48 h medial lethal concentration (zebrafish [1]) [µg/L]	PR interval, QRS interval, ST interval and QT interval (zebrafish [2])	amplitudes of P-wave, Q-wave, R-wave, S-wave and T-wave (zebrafish [2])
[Cl][Cd][Cl] [cadmium chloride]	23.6			
CC1(C)[C@H](C(=O)O[C@H](C#N)c2cccc(Oc3ccccc3)c2)[C@@H]1C=C(Br)Br [deltamethrin]		5.2	increased	decreased
[Mn+2] [manganese]	2.75			
[Cl][Hg][Cl] [mercury chloride]	0.13			
